These results are taken from US9283280B2, “Compositions for drug administration” (Aegis Therapeutics, LLC, priority 2008, dated 2016).

Data set [1] has as its system blood D-glucose. Kind of data set: Insulin eye drops with absorption enhancer in xylazine/ketamine-anesthetized hyperglycemic rats, blood D-glucose. The format is in vivo, rat.
Data set [2] in a line: Intranasal triptans with alkylsaccharide in rats, plasma levels by HPLC.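 Also: rats in groups of eight given 20 µL into one nostril, dose expressed as triptan free base, Cmax and Tmax read from plasma concentration–time curves.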 It is filed as in vivo.
Description: Each set of drug solutions is administered to six groups of eight rats each by 20 uL instillation to a single nare of each animal. […] After the last blood sample is collected each animal is cuthanizcd with CO2. After blood collection, plasma is immediately prepared from each blood sample using lithium/heparin as the anticoagulant. Plasma samples are stored at −70° C. until analyzed. […] The observed Tmax values from each plot is determined by inspection of the concentration vs time plots and recorded as shown in Table XII. The doses designated in this table reflect amounts of triptan free base in each case.
The test system of data set [3] is blood D-glucose. Kind of data set: Glucagon eye drops with surfactant in rats, elevation of blood D-glucose. The settings on record: for Blood Glucose Concentration: glucagon eye drops + 0.5% surfactant added after 120 min.
Description: Glucagon absorption from the eye was measured in rats given eye drops containing various surfactants plus glucagon (30 μg) (Eli Lilly, Indianapolis, Ind.) by monitoring an elevation in blood D-glucose levels. In these experiments, rats were anesthetized with sodium pentobarbital rather than xylazine/ketamin.
Paired animals that receive eye drops containing the surfactant alone, or glucagon alone, were compared to animals receiving eye drops with the surfactant plus glucagon.
[4] abbreviates: eye drops 0.2% insulin + 0.5% enhancer.
[5] abbreviates: 0.5% surfactant, time −10 min, before insulin eye drops.
Where [6] appears, read: 0.5% surfactant, time −20 min, before insulin eye drops.
Setting [7] is: insulin eye drops + 0.5% surfactant, time 0 min.
Setting [8] is: insulin eye drops + 0.5% surfactant, time 10 min.
[9] abbreviates: insulin eye drops + 0.5% surfactant, time 20 min.
The mark [10] stands for this setting: insulin eye drops + 0.5% surfactant, time 30 min.
The mark [11] stands for this setting: insulin eye drops + 0.5% surfactant, time 40 min.
Where [12] appears, read: insulin eye drops + 0.5% surfactant, time 50 min.
The mark [13] stands for this setting: insulin eye drops + 0.5% surfactant, time 60 min.
The mark [14] stands for this setting: insulin eye drops + 0.5% surfactant, time 70 min.
[15] abbreviates: insulin eye drops + 0.5% surfactant, time 80 min.
Where [16] appears, read: insulin eye drops + 0.5% surfactant, time 90 min.
[17] abbreviates: insulin eye drops + 0.5% surfactant, time 100 min.
Where [18] appears, read: insulin eye drops + 0.5% surfactant, time 110 min.
The mark [19] stands for this setting: insulin eye drops + 0.5% surfactant, time 120 min.
[20] abbreviates: Naratriptan 0.22 mg/kg intranasal, alkylsaccharide 0.02%.
The mark [21] stands for this setting: Naratriptan 0.22 mg/kg intranasal, alkylsaccharide 0.05%.
The mark [22] stands for this setting: Naratriptan 0.22 mg/kg intranasal, alkylsaccharide 0.1%.
Setting [23] is: Naratriptan 0.22 mg/kg intranasal, alkylsaccharide 0.5%.
The mark [24] stands for this setting: Naratriptan 0.22 mg/kg intranasal, alkylsaccharide 2%.
Setting [25] is: Rizatriptan […] intranasal, alkylsaccharide 0.02%.
The mark [26] stands for this setting: Rizatriptan […] intranasal, alkylsaccharide 0.05%.
Setting [27] is: Rizatriptan […] intranasal, alkylsaccharide 0.1%.
Where [28] appears, read: Rizatriptan […] intranasal, alkylsaccharide 0.5%.
Setting [29] is: Rizatriptan […] intranasal, alkylsaccharide 2%.
The mark [30] stands for this setting: Sumatriptan 6.2 mg/kg intranasal, alkylsaccharide 0.02%.
[31] abbreviates: Sumatriptan 6.2 mg/kg intranasal, alkylsaccharide 0.05%.
[32] abbreviates: Sumatriptan 6.2 mg/kg intranasal, alkylsaccharide 0.1%.
Where [33] appears, read: Sumatriptan 6.2 mg/kg intranasal, alkylsaccharide 0.5%.
[34] abbreviates: Sumatriptan 6.2 mg/kg intranasal, alkylsaccharide 2%.
The mark [35] stands for this setting: insulin eye drops + 0.5% alkylglucoside.

As for `CCCCCCCOC1O[C@H](CO)[C@@H](O)[C@H](O)[C@H]1O` (some centres unmarked) [heptylglucoside, heptylglucopyranoside], the “hypoglycemic effect / insulin absorption enhancement” value in data set [1] (setting [4]) is on record as “ineffective”.
The term Tmax denotes the time at which the peak concentration occurs. Regarding dodecylsucrose [dodecyl sucrose], the “Blood Glucose Concentration” value in data set [1] (setting [5]) turned out to be 305 mg/dL; in data set [1] (setting [6]), 266 mg/dL; in data set [1] (setting [7]), 351 mg/dL; in data set [1] (setting [8]) it was 347 mg/dL; in data set [1] (setting [9]), 252 mg/dL; in data set [1] (setting [10]), 161 mg/dL. Moreover, the “Blood Glucose Concentration” value in data set [1] (setting [11]) is 120 mg/dL; in data set [1] (setting [12]), 105 mg/dL; in data set [1] (setting [13]), 114 mg/dL; in data set [1] (setting [14]) it was 113 mg/dL; in data set [1] (setting [15]) it was 104 mg/dL; in data set [1] (setting [16]) it was 86 mg/dL. Further, the entries for the “Blood Glucose Concentration” value in data set [1] (setting [17]), in data set [1] (setting [18]) and in data set [1] (setting [19]) were 113 mg/dL, 107 mg/dL and 112 mg/dL, respectively. In addition, the blood glucose level was 335 mg/dL in data set [1] (insulin eye drops + […] alkyl saccharide, time 0 min) and 150 mg/dL in data set [1] (insulin eye drops + […] alkyl saccharide, time 120 min). The Tmax in data set [2] (setting [20]) is approximately 60 min; in data set [2] (setting [21]), approximately 5 to 15 min; in data set [2] (setting [22]) it was approximately 5 to 15 min; in data set [2] (setting [23]) it was approximately 5 to 15 min; in data set [2] (setting [24]), approximately 5 to 15 min; in data set [2] (setting [25]), approximately 60 min. For the same compound, the Tmax in data set [2] (setting [26]) is approximately 5 to 15 min; in data set [2] (setting [27]), approximately 5 to 15 min; in data set [2] (setting [28]), approximately 5 to 15 min; in data set [2] (setting [29]), approximately 5 to 15 min; in data set [2] (setting [30]), approximately 60 min; in data set [2] (setting [31]), approximately 5 to 15 min. Also, the time of peak concentration (Tmax) in data set [2] (setting [32]), in data set [2] (setting [33]) and in data set [2] (setting [34]) was approximately 5 to 15 min throughout.
In the case of `CCCCCCCCCCCCCO[C@@H]1O[C@H](CO)[C@@H](O[C@H]2O[C@H](CO)[C@@H](O)[C@H](O)[C@H]2O)[C@H](O)[C@H]1O` [tridecyl maltoside, tridecyl-β-D-maltoside], the “Blood Glucose Concentration” value in data set [1] (setting [5]) is 307 mg/dL; in data set [1] (setting [6]), 255 mg/dL; in data set [1] (setting [7]) it was 323 mg/dL; in data set [1] (setting [8]), 309 mg/dL; in data set [1] (setting [9]), 217 mg/dL; in data set [1] (setting [10]) it was 131 mg/dL. In addition, the “Blood Glucose Concentration” value in data set [1] (setting [11]) was 100 mg/dL; in data set [1] (setting [12]), 87 mg/dL; in data set [1] (setting [13]), 107 mg/dL; in data set [1] (setting [14]) it was 115 mg/dL; in data set [1] (setting [15]), 79 mg/dL; in data set [1] (setting [16]) it was 85 mg/dL. The “Blood Glucose Concentration” value in data set [1] (setting [17]) is 76 mg/dL; in data set [1] (setting [18]), 74 mg/dL; in data set [1] (setting [19]) it was 75 mg/dL; in data set [3] (time 130 min) it was 82 mg/dL; in data set [3] (time 140 min) it was 121 mg/dL; in data set [3] (time 150 min) it was 148 mg/dL. Moreover, the “Blood Glucose Concentration” value came to 173 mg/dL in data set [3] (time 160 min), 162 mg/dL in data set [3] (time 170 min), 162 mg/dL in data set [3] (time 180 min) and 156 mg/dL in data set [3] (time 190 min). Moreover, the “hypoglycemic effect / insulin absorption enhancement” value in data set [1] (setting [4]) is reported as “effective”; in data set [1] (eye drops 0.2% insulin + […] enhancer), “sustained for the two hour time course”. Besides, the “Ratio Cmax(alkylsacch)/Cmax(No alkylsacch)” value in data set [2] (setting [20]) was “≦1.5”; in data set [2] (setting [21]), “≧1.5”; in data set [2] (setting [22]), “≧1.5”; in data set [2] (setting [23]), “≧1.5”; in data set [2] (setting [24]), “≧1.5”; in data set [2] (setting [30]) it was “≦1.5”. Also, the “Ratio Cmax(alkylsacch)/Cmax(No alkylsacch)” value in data set [2] (setting [31]), in data set [2] (setting [32]), in data set [2] (setting [33]) and in data set [2] (setting [34]) was “≧1.5” throughout. In addition, the Tmax is approximately 60 min in data set [2] (setting [20]); approximately 5 to 15 min in data set [2] (setting [21]); approximately 5 to 15 min in data set [2] (setting [22]); approximately 5 to 15 min in data set [2] (setting [23]); approximately 5 to 15 min in data set [2] (setting [24]); approximately 60 min in data set [2] (setting [25]). In addition, the Tmax was approximately 5 to 15 min in data set [2] (setting [26]); approximately 5 to 15 min in data set [2] (setting [27]); approximately 5 to 15 min in data set [2] (setting [28]); approximately 5 to 15 min in data set [2] (setting [29]); approximately 60 min in data set [2] (setting [30]); approximately 5 to 15 min in data set [2] (setting [31]). The Tmax in data set [2] (setting [32]), in data set [2] (setting [33]) and in data set [2] (setting [34]) was approximately 5 to 15 min throughout. For the same compound, the “glucagon absorption / blood D-glucose values” in data set [3] (eye drops surfactant plus glucagon in rats previously treated with surfactant plus insulin eye drops) is “increase significantly”.
In the case of decylsucrose, the “hypoglycemic effect / insulin absorption enhancement” value in data set [1] (setting [4]) is recorded as “effective in reducing blood glucose levels”. Besides, the blood glucose level is 313 mg/dL in data set [1] (insulin eye drops + 0.5% alkyl saccharide, time 0 min) and 164 mg/dL in data set [1] (insulin eye drops + 0.5% alkyl saccharide, time 120 min).
Regarding `CCCCCCCCO[C@@H]1O[C@H](CO)[C@@H](O[C@H]2O[C@H](CO)[C@@H](O)[C@H](O)[C@H]2O)[C@H](O)[C@H]1O` [octyl maltoside, Octyl-β-D-maltoside], in data set [1] (ocular insulin, concentration not given), the “absorption enhancing activity by alkyl chain length” value is on record as “no”. Besides, the “Ratio Cmax(alkylsacch)/Cmax(No alkylsacch)” value in data set [2] (setting [20]), in data set [2] (setting [21]), in data set [2] (setting [22]), in data set [2] (setting [23]), in data set [2] (setting [24]) and in data set [2] (setting [30]) was “≦1.5” throughout. For the same compound, the “Ratio Cmax(alkylsacch)/Cmax(No alkylsacch)” value in data set [2] (setting [31]), in data set [2] (setting [32]), in data set [2] (setting [33]) and in data set [2] (setting [34]) was “≦1.5” each time. In addition, the Tmax in data set [2] (setting [20]), in data set [2] (setting [21]), in data set [2] (setting [22]), in data set [2] (setting [23]), in data set [2] (setting [24]) and in data set [2] (setting [25]) was approximately 60 to 120 min in each case. Besides, the Tmax in data set [2] (setting [26]), in data set [2] (setting [27]), in data set [2] (setting [28]), in data set [2] (setting [29]), in data set [2] (setting [30]) and in data set [2] (setting [31]) was approximately 60 to 120 min each time. Moreover, the Tmax in data set [2] (setting [32]), in data set [2] (setting [33]) and in data set [2] (setting [34]) was approximately 60 to 120 min in each case.
Turning to `CCCCCCOC1O[C@H](CO)[C@@H](O)[C@H](O)[C@H]1O` (some centres unmarked) [hexylglucoside, Hexylglucopyranoside], the “hypoglycemic effect / insulin absorption enhancement” value in data set [1] (setting [4]) was “ineffective”.
`CCCCCCCCCOC1O[C@H](CO)[C@@H](O)[C@H](O)[C@H]1O` (some centres unmarked) [nonylglucoside, nonylglucopyranoside]: in data set [1] (setting [4]), the “hypoglycemic effect / insulin absorption enhancement” value was “effectively stimulated insulin absorption”. Besides, in data set [1] (setting [35]), the “blood glucose level, initial (from)” value stood at 297 mg/dL and the “blood glucose level, reduced (to)” value was 150 mg/dL.
